The values below come from ChEMBL document CHEMBL4420062, “Tfpi inhibitors and methods of use” (2013).

Where only a bound is given, the exact number is not on record here.

The target of one data set is T1, Tissue factor pathway inhibitor (Homo sapiens, UniProt P10646).
T1 sequence (P10646 whole entry): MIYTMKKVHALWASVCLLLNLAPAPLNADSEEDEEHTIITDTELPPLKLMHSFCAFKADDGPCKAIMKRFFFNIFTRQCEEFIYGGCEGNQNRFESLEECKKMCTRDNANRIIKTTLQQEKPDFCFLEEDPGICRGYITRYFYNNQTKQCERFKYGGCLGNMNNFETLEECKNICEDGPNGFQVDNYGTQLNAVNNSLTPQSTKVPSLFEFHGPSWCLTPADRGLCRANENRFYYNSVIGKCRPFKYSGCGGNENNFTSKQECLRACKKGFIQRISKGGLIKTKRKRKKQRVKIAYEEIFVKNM
In words: Binding affinity to TFPI (unknown origin) incubated for […] using tracer peptide JBT0131 by screening ELISA.
Conditions: not given
In the case of Ac-FQSLKNVFVFGYFERLRAKL-NH2, the half-maximal inhibitory concentration (IC50) is over 1.67 µM. For the molecule Ac-FQSKKNVFVFGDFERLRAKL-NH2, the half-inhibitory concentration (IC50) is over 5 µM.

Molecule `CCCCCCCCCCCCCC(=O)NCCCC[C@H](NC(=O)[C@H]1CCCN1C(=O)[C@H](CCCCN)NC(=O)[C@H](CO)NC(=O)[C@H](CCC(N)=O)NC(=O)[C@H](Cc1ccccc1)NC(=O)CCCCC)C(=O)N[C@H](C(=O)N[C@@H](Cc1cnc[nH]1)C(=O)N[C@H](C(=O)N[C@@H](CC(=O)O)C(=O)N[C@H](C)C(=O)N[C@@H](Cc1ccc(O)cc1)C(=O)N[C@@H](Cc1ccccc1)C(=O)N[C@@H](CCC(=O)O)C(=O)N[C@@H](CCCNC(=N)N)C(=O)N[C@@H](CC(C)C)C(=O)NC(C)(C)C(=O)N[C@@H](C)C(=O)N[C@@H](CCCCN)C(=O)N[C@@H](CC(C)C)C(N)=O)C(C)(C)C)C(C)C` gave a concentration for half-maximal inhibition (IC50) of over 0.5 µM. For Ac-FQSKKNVFGFGYFERLRAKL-NH2, the IC50 is over 5 µM.

Test system in a further data set: not listed separately
Put plainly: Stability in human plasma assessed as parent compound remaining after 24 hrs. As to conditions: read-out: Stability. Type of data set: ADME, cell-free.
As for `CC(C)C[C@H](NC(=O)[C@H](CCCCN)NC(=O)[C@H](C)NC(=O)C(C)(C)NC(=O)[C@H](CC(C)C)NC(=O)[C@H](CCCNC(=N)N)NC(=O)[C@H](CCC(=O)O)NC(=O)[C@H](Cc1ccccc1)NC(=O)[C@H](Cc1ccc(O)cc1)NC(=O)[C@@H](C)NC(=O)[C@H](CC(=O)O)NC(=O)[C@@H](NC(=O)[C@H](Cc1cnc[nH]1)NC(=O)[C@@H](NC(=O)[C@H](CC(N)=O)NC(=O)[C@H]1CCCN1C(=O)[C@H](CCCCN)NC(=O)[C@H](CO)NC(=O)[C@H](CCC(N)=O)NC(=O)[C@H](Cc1ccccc1)NS(=O)(=O)c1cccc2ccccc12)C(C)C)C(C)(C)C)C(N)=O`, the remaining at 24 h is 107%. Take `CC(=O)N[C@@H](Cc1cccs1)C(=O)N[C@@H](CCC(N)=O)C(=O)N[C@@H](CO)C(=O)N[C@@H](CCCCN)C(=O)N1CCC[C@@H]1C(=O)N[C@@H](CC(N)=O)C(=O)N[C@H](C(=O)N[C@@H](Cc1cnc[nH]1)C(=O)N[C@H](C(=O)N[C@@H](CC(=O)O)C(=O)NCC(=O)N[C@@H](Cc1ccc(O)cc1)C(=O)N[C@@H](Cc1ccccc1)C(=O)N[C@@H](CCC(=O)O)C(=O)N[C@@H](CCCNC(=N)N)C(=O)N[C@@H](CC(C)C)C(=O)NC(C)(C)C(=O)N[C@@H](C)C(=O)N[C@@H](CCCCN)C(=O)N[C@@H](CC(C)C)C(N)=O)C(C)C)C(C)C`: the remaining at 24 h was determined as 19.8%. Consider `CC(=O)NCSC[C@H](NC(=O)[C@H]1CCCN1C(=O)[C@H](CCCCN)NC(=O)[C@H](CO)NC(=O)[C@H](CCC(N)=O)NC(=O)[C@H](Cc1ccccc1)NC(C)=O)C(=O)N[C@H](C(=O)N[C@@H](Cc1c[nH]cn1)C(=O)N[C@H](C(=O)N[C@@H](CC(=O)O)C(=O)NCC(=O)N[C@@H](Cc1ccc(O)cc1)C(=O)N[C@@H](Cc1ccccc1)C(=O)N[C@@H](CCC(=O)O)C(=O)N[C@@H](CCCNC(=N)N)C(=O)N[C@@H](CC(C)C)C(=O)NC(C)(C)C(=O)N[C@@H](C)C(=O)N[C@@H](CCCCN)C(=O)N[C@@H](CC(C)C)C(N)=O)C(C)(C)C)C(C)C`, for which the remaining at 24 h was found to be 81.2%. Turning to `CC(=O)N[C@@H](Cc1ccccc1)C(=O)N[C@@H](CCC(N)=O)C(=O)N[C@@H](CO)C(=O)N[C@@H](CCCCN)C(=O)N1CCC[C@@H]1C(=O)N[C@@H](CC(N)=O)C(=O)N[C@H](C(=O)N[C@@H](Cc1cnc[nH]1)C(=O)N[C@H](C(=O)N1CCC[C@H]1C(=O)N[C@H](CS)C(=O)N[C@@H](Cc1ccc(O)cc1)C(=O)N[C@@H](Cc1csc2ccccc12)C(=O)N[C@@H](CCS)C(=O)N[C@@H](CCCNC(=N)N)C(=O)N[C@@H](CC(C)C)C(=O)NC(C)(C)C(=O)N[C@H](C)C(=O)N[C@@H](CCCCN)C(=O)N[C@@H](CC(C)C)C(N)=O)C(C)C)C(C)C`, the remaining at 24 h worked out at 77.7%.

With `CC(=O)N[C@@H](Cc1cccc2ccccc12)C(=O)N[C@@H](CCC(N)=O)C(=O)N[C@@H](CO)C(=O)N[C@@H](CCCCN)C(=O)N1CCC[C@@H]1C(=O)N[C@@H](CC(N)=O)C(=O)N[C@H](C(=O)N[C@@H](Cc1cnc[nH]1)C(=O)N[C@H](C(=O)N[C@@H](CC(=O)O)C(=O)NCC(=O)N[C@@H](Cc1ccc(O)cc1)C(=O)N[C@@H](Cc1ccccc1)C(=O)N[C@@H](CCC(=O)O)C(=O)N[C@@H](CCCNC(=N)N)C(=O)N[C@@H](CC(C)C)C(=O)NC(C)(C)C(=O)N[C@@H](C)C(=O)N[C@@H](CCCCN)C(=O)N[C@@H](CC(C)C)C(N)=O)C(C)C)C(C)C`, the remaining at 24 h was 19.3%.

Test system in a further data set: not listed separately
In words: Stability in mouse plasma assessed as parent compound remaining after 24 hrs. Format: ADME, cell-free. As to conditions: read-out: Stability.
Turning to `CC(C)C[C@H](NC(=O)[C@H](CCCCN)NC(=O)[C@H](C)NC(=O)C(C)(C)NC(=O)[C@H](CC(C)C)NC(=O)[C@H](CCCNC(=N)N)NC(=O)[C@H](CCC(=O)O)NC(=O)[C@H](Cc1ccccc1)NC(=O)[C@H](Cc1ccc(O)cc1)NC(=O)[C@@H](C)NC(=O)[C@H](CC(=O)O)NC(=O)[C@@H](NC(=O)[C@H](Cc1cnc[nH]1)NC(=O)[C@@H](NC(=O)[C@H](CC(N)=O)NC(=O)[C@H]1CCCN1C(=O)[C@H](CCCCN)NC(=O)[C@H](CO)NC(=O)[C@H](CCC(N)=O)NC(=O)[C@H](Cc1ccccc1)NS(=O)(=O)c1cccc2ccccc12)C(C)C)C(C)(C)C)C(N)=O`, the remaining at 24 h amounted to 52%. As to `COc1ccc(C[C@H](NC(=O)CNC(=O)[C@H](CC(=O)O)NC(=O)[C@@H](NC(=O)[C@H](Cc2cnc[nH]2)NC(=O)[C@@H](NC(=O)[C@H](CC(N)=O)NC(=O)[C@H]2CCCN2C(=O)[C@H](CCCCN)NC(=O)[C@H](CO)NC(=O)[C@H](CCC(N)=O)NC(=O)[C@H](Cc2ccccc2)NC(C)=O)C(C)C)C(C)C)C(=O)N[C@@H](Cc2ccccc2)C(=O)N[C@@H](CCC(=O)O)C(=O)N[C@@H](CCCNC(=N)N)C(=O)N[C@@H](CC(C)C)C(=O)NC(C)(C)C(=O)N[C@@H](C)C(=O)N[C@@H](CCCCN)C(=O)N[C@@H](CC(C)C)C(N)=O)cc1`, the remaining at 24 h was determined as 7.3%. Turning to `CC(=O)N[C@@H](Cc1cccs1)C(=O)N[C@@H](CCC(N)=O)C(=O)N[C@@H](CO)C(=O)N[C@@H](CCCCN)C(=O)N1CCC[C@@H]1C(=O)N[C@@H](CC(N)=O)C(=O)N[C@H](C(=O)N[C@@H](Cc1cnc[nH]1)C(=O)N[C@H](C(=O)N[C@@H](CC(=O)O)C(=O)NCC(=O)N[C@@H](Cc1ccc(O)cc1)C(=O)N[C@@H](Cc1ccccc1)C(=O)N[C@@H](CCC(=O)O)C(=O)N[C@@H](CCCNC(=N)N)C(=O)N[C@@H](CC(C)C)C(=O)NC(C)(C)C(=O)N[C@@H](C)C(=O)N[C@@H](CCCCN)C(=O)N[C@@H](CC(C)C)C(N)=O)C(C)C)C(C)C`, the remaining at 24 h is 1.2%. In the case of `CC(=O)NCSC[C@H](NC(=O)[C@H]1CCCN1C(=O)[C@H](CCCCN)NC(=O)[C@H](CO)NC(=O)[C@H](CCC(N)=O)NC(=O)[C@H](Cc1ccccc1)NC(C)=O)C(=O)N[C@H](C(=O)N[C@@H](Cc1c[nH]cn1)C(=O)N[C@H](C(=O)N[C@@H](CC(=O)O)C(=O)NCC(=O)N[C@@H](Cc1ccc(O)cc1)C(=O)N[C@@H](Cc1ccccc1)C(=O)N[C@@H](CCC(=O)O)C(=O)N[C@@H](CCCNC(=N)N)C(=O)N[C@@H](CC(C)C)C(=O)NC(C)(C)C(=O)N[C@@H](C)C(=O)N[C@@H](CCCCN)C(=O)N[C@@H](CC(C)C)C(N)=O)C(C)(C)C)C(C)C`, the remaining at 24 h came to 36.1%.

On to `CC(=O)N[C@@H](Cc1ccccc1)C(=O)N[C@@H](CCC(N)=O)C(=O)N[C@@H](CO)C(=O)N[C@@H](CCCCN)C(=O)N1CCC[C@@H]1C(=O)N[C@@H](CC(N)=O)C(=O)N[C@H](C(=O)N[C@@H](Cc1cnc[nH]1)C(=O)N[C@H](C(=O)N1CCC[C@H]1C(=O)N[C@H](CS)C(=O)N[C@@H](Cc1ccc(O)cc1)C(=O)N[C@@H](Cc1csc2ccccc12)C(=O)N[C@@H](CCS)C(=O)N[C@@H](CCCNC(=N)N)C(=O)N[C@@H](CC(C)C)C(=O)NC(C)(C)C(=O)N[C@H](C)C(=O)N[C@@H](CCCCN)C(=O)N[C@@H](CC(C)C)C(N)=O)C(C)C)C(C)C`, for which the remaining at 24 h amounted to 28.3%. Turning to `CC(=O)N[C@@H](Cc1ccccc1)C(=O)N[C@@H](CCC(N)=O)C(=O)N[C@@H](CO)C(=O)N[C@@H](CCCCN)C(=O)N1CCC[C@@H]1C(=O)N[C@@H](CC(N)=O)C(=O)N[C@H](C(=O)N[C@@H](Cc1cnc[nH]1)C(=O)N[C@H](C(=O)N[C@@H](CC(=O)O)C(=O)N[C@H](C)C(=O)N[C@@H](Cc1ccc(O)cc1)C(=O)N[C@@H](Cc1ccccc1)C(=O)N[C@@H](CCC(=O)O)C(=O)N[C@@H](CCCNC(=N)N)C(=O)N[C@H]1CCSSCC[C@@H](C(N)=O)NC(=O)[C@H](CCCCN)NC(=O)[C@H](C)NC(=O)C(C)(C)NC1=O)C(C)(C)C)C(C)C`, the remaining at 24 h was 65.5%.

For `CC(=O)N[C@@H](Cc1cccc2ccccc12)C(=O)N[C@@H](CCC(N)=O)C(=O)N[C@@H](CO)C(=O)N[C@@H](CCCCN)C(=O)N1CCC[C@@H]1C(=O)N[C@@H](CC(N)=O)C(=O)N[C@H](C(=O)N[C@@H](Cc1cnc[nH]1)C(=O)N[C@H](C(=O)N[C@@H](CC(=O)O)C(=O)NCC(=O)N[C@@H](Cc1ccc(O)cc1)C(=O)N[C@@H](Cc1ccccc1)C(=O)N[C@@H](CCC(=O)O)C(=O)N[C@@H](CCCNC(=N)N)C(=O)N[C@@H](CC(C)C)C(=O)NC(C)(C)C(=O)N[C@@H](C)C(=O)N[C@@H](CCCCN)C(=O)N[C@@H](CC(C)C)C(N)=O)C(C)C)C(C)C`, the remaining at 24 h is 0%. Take `CCC(CC)(NC(=O)[C@H](CC(C)C)NC(=O)[C@H](CCCNC(=N)N)NC(=O)[C@H](CCC(=O)O)NC(=O)[C@H](Cc1ccccc1)NC(=O)[C@H](Cc1ccc(O)cc1)NC(=O)[C@@H](C)NC(=O)[C@H](CC(=O)O)NC(=O)[C@@H](NC(=O)[C@H](Cc1cnc[nH]1)NC(=O)[C@@H](NC(=O)[C@H](CC(N)=O)NC(=O)[C@H]1CCCN1C(=O)[C@H](CCCCN)NC(=O)[C@H](CO)NC(=O)[C@H](CCC(N)=O)NC(=O)[C@H](Cc1ccccc1)NC(C)=O)C(C)C)C(C)(C)C)C(=O)N[C@@H](C)C(=O)N[C@@H](CCCCN)C(=O)N[C@@H](CC(C)C)C(N)=O`: the remaining at 24 h was 62.9%. `CC(=O)N[C@@H](Cc1ccccc1)C(=O)N[C@@H](CCC(N)=O)C(=O)N[C@@H](CO)C(=O)N[C@@H](CCCCN)C(=O)N1CCC[C@@H]1C(=O)N[C@@H](CC(N)=O)C(=O)N[C@H](C(=O)N[C@@H](Cc1cnc[nH]1)C(=O)N[C@H](C(=O)N[C@@H](CC(=O)O)C(=O)NCC(=O)N[C@@H](Cc1ccc(O)cc1)C(=O)N[C@@H](Cc1ccccc1)C(=O)N[C@@H](CCC(=O)O)C(=O)N[C@@H](CCCNC(=N)N)C(=O)N[C@@H](CC(C)C)C(=O)NC(C)(C)C(=O)N[C@@H](C)C(=O)N[C@@H](CCCCN)C(=O)N[C@@H](CC(C)C)C(N)=O)C(C)C)C1CCCCC1`: the remaining at 24 h was 4.1%. With `CC(=O)N[C@@H](Cc1ccccc1)C(=O)N[C@@H](CCC(N)=O)C(=O)N[C@@H](CO)C(=O)N[C@@H](CCCCN)C(=O)N1CCC[C@@H]1C(=O)N[C@@H](CC(N)=O)C(=O)N[C@H](C(=O)N[C@@H](Cc1cnc[nH]1)C(=O)N[C@H](C(=O)N[C@@H](CC(=O)O)C(=O)NCC(=O)N[C@@H](Cc1ccc(O)cc1)C(=O)N[C@@H](Cc1cccc2ccccc12)C(=O)N[C@@H](CCC(=O)O)C(=O)N[C@@H](CCCNC(=N)N)C(=O)N[C@@H](CC(C)C)C(=O)NC(C)(C)C(=O)N[C@@H](C)C(=O)N[C@@H](CCCCN)C(=O)N[C@@H](CC(C)C)C(N)=O)C(C)C)C(C)C`, the remaining at 24 h turned out to be 6.3%.
